Measurements taken from patent publication US20230416802A1, “SPECIFIC SUBSTRATES AND PRODUCTS OF HSD17B13 AS MARKERS OF LIVER DISEASE AND BIOMARKERS FOR LIVER DISEASE TREATMENT” (INIPHARM, INC., priority 2020, published 2023).

Target: T1, HSD17B13 enzyme (Homo sapiens, UniProt Q7Z5P4)
T1 construct: His; made in house; host or cells: E. coli
T1 sequence (Q7Z5P4 20-300): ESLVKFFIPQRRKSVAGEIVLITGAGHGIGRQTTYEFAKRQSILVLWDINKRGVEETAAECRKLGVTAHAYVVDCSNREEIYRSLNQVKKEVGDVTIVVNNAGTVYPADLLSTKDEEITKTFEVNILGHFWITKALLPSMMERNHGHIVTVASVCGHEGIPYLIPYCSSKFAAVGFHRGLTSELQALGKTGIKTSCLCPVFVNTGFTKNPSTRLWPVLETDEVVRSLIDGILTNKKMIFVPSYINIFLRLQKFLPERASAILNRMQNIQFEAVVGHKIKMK
Assay: HSD17B13 activity assay using NADH fluorescence
Type: biochemical
Details: substrate at 3.3 μM; activity relative to positive control LTB3
Experimental: A fluorescence based HSD17B13 activity assay was used to monitor the fluorescence of NADH, which is generated from NAD+ during the dehydrogenation of the substrate LTB3 or other substrates. Reactions were performed in a 384-well plates (Greiner; #655076) in a 20 μl reaction volume containing the following reagents (final concentrations): 3 mM NAD^+ (Sigma; #N0623); 125 nM HSD17B13 enzyme (in-house E. coli expressed His-tagged, purified, soluble protein); 1 M potassium phosphate buffer, pH 7.4; 1% DMSO; and a range of substrate concentrations ([…]). Reactions proceeded for […] at 26.5° C. Generation of NADH was measured as the fluorescence signal (Excitation at 340 nm and Emission at 445 nm) at 3 hours minus the baseline fluorescence at t=0. Fluorescence signals in the absence of added substrate (negative control values), were subtracted from all values so that the results reflected substrate-dependent production of NADH. NADH standards were included to allow the conversion of relative fluorescence units into rates of enzyme activity. Ten concentrations of substrate were tested (in the range of 30 mM-2.5 nM), and two independent assessments were performed at each concentration. Activity was compared to the positive control, LTB3, at a concentration of […]. Results are reported as the ratio: [Activity of compound at 30 mM]/[Activity of LTB3 at […]].

In the case of CCCCCCCCCCCC(=O)SCCNC(=O)CCNC(=O)[C@H](O)C(C)(C)COP(=O)(O)OP(=O)(O)OC[C@H]1O[C@@H](n2cnc3c(N)ncnc32)[C@H](O)[C@@H]1OP(=O)(O)O [Lauryl coenzyme A, S-[2-[3-[[(2R)-4-[[[(2R,3S,4R,5R)-5-(6-aminopurin-9-yl)-4-hydroxy-3-phosphonooxyoxolan-2-yl]methoxy-hydroxyphosphoryl]oxy-hydroxyphosphoryl]oxy-2-hydroxy-3,3-dimethylbutanoyl]amino]propanoylamino]ethyl] dodecanethioate], the “Relative oxidation (%) at 3.3 μM” value is reported as 35 (AT 3.3 μM) %.

Same assay, conditions: substrate at 10 μM; activity relative to positive control LTB3

With CC(C(=O)O)C(=O)SCCNC(=O)CCNC(=O)[C@H](O)C(C)(C)COP(=O)(O)OP(=O)(O)OC[C@H]1O[C@@H](n2cnc3c(N)ncnc32)[C@H](O)[C@@H]1OP(=O)(O)O (stereo partly drawn) [Methyl malonyl coenzyme A, (9R)-1-[(2R,3S,4R,5R)-5-(6-Amino-9H-purin-9-yl)-4-hydroxy-3-(phosphonooxy)oxolan-2-yl]-3,5,9-trihydroxy-8,8,20-trimethyl-3,5,10,14,19-pentaoxo-2,4,6-trioxa-18-thia-11,15-diaza-3λ5,5λ5-diphosphahenicosan-21-oic acid] the “Relative oxidation (%) at 10 μM” value was 29 (at 10 μM) %.

Same assay, conditions: substrate at 30 μM; activity relative to positive control LTB3; NADH production by purified HSD17B13

In order of falling “Relative oxidation at 30 μM (%)” value:
1. CC/C=C\C[C@H](O)/C=C/C=C\C=C\C=C\[C@@H](O)[C@@H](O)C/C=C\CCC(=O)O [Resolvin D1, 7S,8R,17S-trihydroxy-4Z,9E,11E,13Z,15E,19Z-docosahexaenoic acid]  135%
2. CC/C=C\C[C@H](O)/C=C/C=C\C=C\[C@@H](O)C/C=C\C/C=C\CCC(=O)O [Protectin DX, 10(S),17(S)-dihydroxy-4Z,7Z,11E,13Z,15E,19Z-docosahexaenoic acid]  105%
3. CCCCCCCC[C@@H](O)/C=C/C=C\C=C\[C@@H](O)CCCC(=O)O [Leukotriene B3 (LTB3), 5S,12R-dihydroxy-6Z,8E,10E-eicosatrienoic acid]  100%
4. CCCCC/C=C\C[C@@H](O)/C=C/C=C\C/C=C\CCCC(=O)O [12(R) HETE]  60%
5. CCCCC[C@@H](O)/C=C/C=C\CCCCCCCCCC(=O)O [15 (R) HEDE]  46%
6. CC[C@@H](O)/C=C/C=C\C[C@@H](O)/C=C/C=C/C=C\[C@@H](O)CCCC(=O)O [Resolvin E1, 5S,12R,18R-trihydroxy-6Z,8E,10E,14Z,16E-eicosapentaenoic acid]  45%
7. CC/C=C\C/C=C\C[C@H](O)\C=C/C=C/C=C/[C@H](O)C/C=C\CCC(=O)O [Maresin 1, 7R,14S-dihydroxy-4Z,8E,10E,12Z,16Z,19Z-docosahexaenoic acid]  22%
